Results on two molecules are retold here after patent US10238689B2, “Methods for combating bacterial infections by killing persister cells with mitomycin C and/or cisplatin” (THE PENN STATE RESEARCH FOUNDATION, priority 2015, dated 2019).

Experiment [1] deals with E. coli K-12 biofilm cultures. In words: Biofilm antibiotic killing assay. Type of experiment: cell-based, Escherichia coli.
Experiment [2] has as its system E. coli K-12 BW25113 biofilm. Briefly: Biofilm dispersal assay (crystal violet). The experiment is classed as cell-based, Escherichia coli. The conditions noted are these: 24 h static growth then 24 h with MMC, 30° C., M9-glucose. The procedure: Cultures were incubated for an additional 24 h with or without MMC. Biofilm levels were assayed using crystal violet staining as described previously (Lee, et al., Appl. Environ. Microbiol. 75, 1703 (2009)). Cell growth (turbidity at 620 nm) was used to normalize the total biofilm formation (absorbance at 540 nm). Data points were averaged from 15 replicate wells using at least two independent cultures.

The test system of experiment [3] is pDNA of E. coli K-12 BW25113/pCA24N. In words: Denaturing agarose gel electrophoresis of pDNA from treated cells. Type of experiment: cell-based, Escherichia coli. The conditions noted are these: non-persisters and rifampicin-induced persisters, MMC 100 μg/mL 1 h. As to the method: Overnight cultures (16 h) of E. coli K-12 BW25113/pCA24N grown in LB were diluted 1:1000 in buffered LB and grown to the desired turbidity. For exponential phase cells (i.e., non-persisters), cultures were grown to a turbidity of 2.0 at 600 nm. For rifampicin-induced persisters, cultures were grown to a turbidity of 0.8 at 600 nm, exposed to rifampicin (100 μg/mL) for 30 min, centrifuged, and resuspended in fresh medium to remove the rifampicin. Non-persister and rifampicin-induced persister cultures were treated with MMC (100 μg/mL) for 1 h. pDNA was extracted from samples taken before and after MMC treatment and linearized by HindIII digestion. As a positive control, 2 μg of linearized pDNA from non-persisters was crosslinked in vitro with 500 μg/mL (1.5 mM) MMC in 0.2 mM EDTA, 50 mM NaCl, and 5 mM Tris (pH=7.6) with Na2S2O4 added six times at 10 min intervals to reach a final concentration of 2.25 mM (1.5× molarity of MMC). The in vitro crosslinking reaction was performed anaerobically on ice and the reaction was stopped by exposure to air. Linearized pDNA was visualized after electrophoresis through a TAE agarose gel and an alkaline denaturing agarose gel. Experiment was performed with at least two independent cultures.

The test system of experiment [4] is EHEC infection. The experiment is classed as in vivo, Caenorhabditis elegans. As to conditions: MMC 10 μg/mL, ciprofloxacin 5 μg/mL, ampicillin 100 μg/mL, 6 h exposure; four replicates.
The test system of experiment [5] is EHEC biofilm cultures. The conditions noted are these: M9-glucose, 24 h treatment, MMC 10 μg/mL, ciprofloxacin 5 μg/mL.
The test system of experiment [6] is E. coli K-12. The experiment is classed as cell-based, Escherichia coli. The procedure: Persister cell killing and eradication assays (planktonic cells). For the time course experiment, late stationary phase cells of E. coli K-12 (wild-type and isogenic mutants) were prepared by growing cells overnight (16 h) in LB medium buffered with 100 mM KPO4 at pH 7.0 (buffered LB). A 1 mL culture was used for a drop (10 μL×3) assay to check cell viability at 0 h (i.e., before antibiotic treatment). […] At 1 h intervals, 1 mL culture was centrifuged at 10,000 rpm for 3 min, the supernatant was discarded, the cells were resuspended in 1 mL of normal saline (0.85% NaCl), and the cell suspension was serially diluted for a drop assay to check cell viability.
To test for eradication, the wild-type E. coli K-12 cells were treated with cisplatin for 12 h, a 1 mL sample was centrifuged, the cell pellet was resuspended in 150 μL of normal saline, and the cells were spread on LB agar to check cell viability. Another 1 mL culture was diluted 1:10 with fresh buffered LB and the cells were incubated to allow any remaining cells to replicate. After 12 h, 18 h, and 24 h, 1 mL samples were centrifuged, resuspended in 150 μL of normal saline and spread on LB agar plates to check cell viability. At least two independent cultures were used.

Experiment [7] has as its system E. coli K-12 persister cells. Briefly: Rifampicin-induced persister cell killing assay. Type of experiment: cell-based, Escherichia coli. The procedure: Rifampicin-pretreatment was used to convert nearly all the E. coli exponentially-growing cells to persister cells. In brief, overnight cultures (16 h) of E. coli BW25113 were diluted 1:1000 in buffered LB and grown to a turbidity of 0.8 at 600 nm (250 mL flask, 250 rpm). Cultures were treated with rifampicin (100 μg/mL) for 30 min (250 mL flask, 250 rpm), centrifuged, and resuspended in fresh medium to remove the rifampicin. A 1 mL culture was used for a drop assay to check cell viability at 0 h. […] After 3 h, 1 mL of culture was centrifuged at 10,000 rpm for 3 min, the supernatant was discarded, the cells were resuspended in 1 mL of normal saline, and the cell suspension was serially diluted for a drop assay to check cell viability. In addition, 1 mL samples were centrifuged, and the cell pellet resuspended in 150 μL of normal saline and spread on LB agar.
To test whether lower concentrations than 500 μg/mL of cisplatin generate resistant mutants, 5 mL cultures of rifampicin-induced persister cells were treated with 200 μg/mL of cisplatin and cells were enumerated by the drop assay using LB agar, LB agar with 200 μg/mL of cisplatin (LBCP200), and LB agar with 500 μg/mL of cisplatin (LBCP500).

Experiment [8] deals with enterohemorrhagic E. coli (EHEC). In words: Persister cell assay of pathogens (stationary phase). Type of experiment: cell-based, Escherichia coli. As to conditions: stationary-phase cells, buffered LB; cisplatin 500 μg/mL, 5×MIC, 3 h. As to the method: For the persister cell assay of the pathogens, stationary-phase cells were used. Cultures of EHEC, P. aeruginosa, and S. aureus were prepared by a 1:1000 dilution of overnight grown cultures (LB medium for EHEC and P. aeruginosa, TSB for S. aureus) into fresh buffered LB medium for EHEC, M9-glucose for P. aeruginosa, and TSB for S. aureus and re-growing the cells to a turbidity of 3 to 4 at 600 nm for EHEC and S. aureus and growing for 24 h for P. aeruginosa. Stationary-phase cultures of EHEC (buffered LB medium), P. aeruginosa (M9-glucose medium), and S. aureus (TSB medium) were then treated with cisplatin (500 μg/mL for EHEC and S. aureus, 250 μg/mL for P. aeruginosa) for 3 h (250 mL flask, 250 rpm).

Experiment [9] concerns DNA. The conditions noted are these: Eastman 1987; cited from earlier work.
Where [10] appears, read: treatment with 2×MIC (200 μg/mL) of cisplatin.

Where “and” joins values, the source holds several entries; their conditions need not be identical. Identical values can stand only once. Entries after “also recorded” stand apart in the source; their conditions may differ.

Consider `CO[C@@]12[C@H](COC(N)=O)C3=C(C(=O)C(C)=C(N)C3=O)N1C[C@@H]1N[C@@H]12` [MMC, mitomycin C], for which the “fold more susceptible to MMC than ciprofloxacin” value in experiment [1] (anaerobic biofilm cultures in M9-glucose) was 2,500 fold. The “fold more cells killed than ciprofloxacin” value in experiment [1] (biofilms in M9-glucose, 24 h of treatment) is 100,000 fold. Further, in experiment [1] (biofilms in M9-glucose, MMC 10 μg/mL, 24 h), the “biofilm cell viability after treatment” value is reported as “nearly eliminating cells”. For the same molecule, the biofilm dispersal result in experiment [2] was “does not cause biofilm dispersal; also recorded: did not cause biofilm dispersal”. The “pDNA crosslinking (migration as double-stranded DNA under denaturing conditions)” value in experiment [3] is “crosslinks DNA in E. coli K-12 persister cells; also recorded: high percentage of crosslinking”. Moreover, in [4], the “survival of the EHEC-infected worms” value is recorded as “higher than with either ciprofloxacin or ampicillin”. In [5], the cells surviving result is recorded as “eradicated”.

`N.N.[Cl][Pt][Cl]` [cisplatin, cis-diamminodichloroplatinum(II)]: in experiment [6] (5×MIC of cisplatin for 12 h), the “eradication of persister cells (colonies from 1 mL of culture)” value is reported as “completely eradicated”. In addition, the “killing of katE or katG catalase mutants compared to the wild-type strain” value in experiment [6] (8 h treatment with 5×MIC of cisplatin) is given as “did not find any significant differences in killing”. Also, the “time course dependent killing” value in [6] (late stationary phase (16 h of growth), buffered LB, cisplatin 500 μg/mL (5×MIC), ciprofloxacin 5 μg/mL (100×MIC), 8 h) is reported as “nearly eradicated; also recorded: eradicates late stationary-phase E. coli K-12 cells”. Further, the “regrowth when cisplatin is withdrawn” value in experiment [6] (treated culture inoculated into fresh medium, 12 h, 18 h, and 24 h) is given as “no increase in turbidity or colonies”. The “colonies from 1 mL samples” value in [7] (after the 3 h cisplatin treatment (500 μg/mL)) came to 37±5 colonies. Besides, the “number of persister cells after treatment (drop assay)” value in [7] (cisplatin 500 μg/mL, 3 h, limit of detection) was below 100 cells/mL. In addition, in experiment [7] (setting [10]), the “colonies on LBCP500 agar plates (spontaneous resistant mutants)” value is given as “no colonies were found” and the “survivors on LBCP200 agar plates” value is given as 0.08%. In experiment [8], the “cell viability after treatment” value is listed as “eradicated”. Moreover, in experiment [9], the “intrastrand crosslinks at AG sequences” value is 17-19% and 17 to 19%; the “intrastrand crosslinks at GNG sequences” value is on record as below 8%; the “intrastrand crosslinks at adjacent guanines” value is 54-65% and 54 to 65%.
